# Assay results published in PMC6981117, “Redox-coupled proton pumping drives carbon concentration in the photosynthetic complex I” (Nature Communications, 2020).
# Molecular target: T1, NDH-1MS (NDH-1_3), photosynthetic complex I; NdhF3 subunit (Thermosynechococcus vestitus, UniProt Q8DKF5)
# T1 construct: native complex from T. elongatus thylakoid membranes, C-terminal TwinStrep tag on CupS; NdhV not resolved; with CO2 hydration protein CupA; CO2 uptake protein CupS; NAD(P)H-quinone oxidoreductase chain 4-3; NAD(P)H-quinone oxidoreductase subunit 1; NAD(P)H-quinone oxidoreductase subunit 2; NAD(P)H-quinone oxidoreductase subunit 3; NAD(P)H-quinone oxidoreductase subunit 4L; NAD(P)H-quinone oxidoreductase subunit 6; NAD(P)H-quinone oxidoreductase subunit L; NAD(P)H-quinone oxidoreductase subunit S; NAD(P)H-quinone oxidoreductase subunit H; NAD(P)H-quinone oxidoreductase subunit I; NAD(P)H-quinone oxidoreductase subunit J; NAD(P)H-quinone oxidoreductase subunit K; NAD(P)H-quinone oxidoreductase subunit M; NAD(P)H-quinone oxidoreductase subunit N; NAD(P)H-quinone oxidoreductase subunit O
# T1 sequence (Q8DKF5 1-611): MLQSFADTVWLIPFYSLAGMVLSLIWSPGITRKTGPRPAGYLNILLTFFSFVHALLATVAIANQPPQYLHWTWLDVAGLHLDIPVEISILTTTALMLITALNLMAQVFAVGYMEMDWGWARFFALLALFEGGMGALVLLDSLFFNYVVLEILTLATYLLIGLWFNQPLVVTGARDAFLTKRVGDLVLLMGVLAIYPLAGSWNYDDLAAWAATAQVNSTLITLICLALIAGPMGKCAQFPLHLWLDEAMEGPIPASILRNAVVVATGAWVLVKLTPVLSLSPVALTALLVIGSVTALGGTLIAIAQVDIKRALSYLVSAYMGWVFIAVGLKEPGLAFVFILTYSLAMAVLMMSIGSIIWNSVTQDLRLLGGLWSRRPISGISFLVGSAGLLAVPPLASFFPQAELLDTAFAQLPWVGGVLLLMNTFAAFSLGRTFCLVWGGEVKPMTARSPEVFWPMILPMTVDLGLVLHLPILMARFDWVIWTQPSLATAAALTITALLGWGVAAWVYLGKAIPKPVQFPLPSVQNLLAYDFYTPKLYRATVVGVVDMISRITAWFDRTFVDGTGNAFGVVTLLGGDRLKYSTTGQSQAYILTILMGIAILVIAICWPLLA
# Assay: cryo-EM structure, […] Å
# Type: binding
# Conditions: co-purified; motif with chlorophyll a in NdhF3
smiles,measurement,value
CC1=C(/C=C/C(C)=C/C=C/C(C)=C/C=C/C=C(C)/C=C/C=C(C)/C=C/C2=C(C)CCCC2(C)C)C(C)(C)CCC1 [β-carotene],"cryo-EM structure, 3.2 Å",NdhF3 binds a chlorophyll a/β-carotene motif that connects via His469 of NdhF3
